Key:
[1] = molecular target: mTORC2 (Homo sapiens, UniProt P42345); assay: In vitro mTORC2 kinase assay (GST-Akt Ser473 phosphorylation, immunoblot); format: biochemical; design: mTORC was isolated by co-immunoprecipitation using Flag antibody; made in house; host or cells: HEK 293T transfected with Flag-mLST8; details: for reduction of GST-Akt Ser473 phosphorylation by mTORC2: FIG. 6a
Experimental: After introducing Flag-mLST8 into a human cell line 293T, mTORC was isolated by co-immunoprecipitation using Flag antibody. In the in vitro mTORC2 kinase assay, the activity of the isolated mTORC2 was evaluated by measuring phosphorylation of GST-Akt Ser473, which is a selective substrate of mTORC2 by immunoblot analysis. In the control group in which Flag-mLST8 was not introduced, GST-Akt Ser473 phosphorylation was almost not measured. […] Therefore, it was judged that GST-Akt Ser473 phosphorylation measured in the in vitro mTORC2 kinase assay was generated by mTORC2. In order to evaluate the inhibitory effect of norathyriol and athyriol on mTORC2 activity, norathyriol or athyriol was pretreated for 15 minutes, and then in vitro mTORC2 kinase assay was carried out.
More specifically, the HEK 293T cells were cultured in a DMEM culture medium in which 10% heat inactivated FBS+1× Glutamax was added. 8×10^5 HEK 293T cells were seeded in a 100 mm culture dish, and then they were cultured for 1 day. After mixing 42 μl Lipofectamine, 21 μl plus reagent, and 21 μg Flag-mLST8 plasmid DNA to 1 ml OPTI-MEM, it was shaken at a room temperature for 25 minutes to prepare a transfection DNA mixture. The transfection DNA mixture was slowly treated on the cells drop by drop, and after culturing for 5 hours, the culture medium was replaced with a new culture medium. After additional culturing for 48 hours, the cells were […] with CHAPS buffer (50 mM HEPES (pH7.4), 100 mM NaCl, 2 mM EDTA, 0.3% CHAPS, 10 mM sodium pyrophosphate, 10 mM sodium β-glycerophosphate, 1 mM PMSF, 1 μg/ml leupeptin, 1 μg/ml pepstatin A, 10 nM aprotinin, 1 mM Na3VO4, 10 nM calyculin A), and centrifuged at 4° C. at 13,000 rpm for 10 minutes to obtain the supernatant and acquire cell lysate. The protein concentration of the cell lysate was determined with BCA protein assay kit (Thermo Fisher Scientific). After adding anti-Flag M2 affinity gel (50% slurry, Sigma) of 30 μl to the cell lysate of 1 mg, it was shaken at 4° C. for 3 hours. After that, affinity gel was washed with CHAPS buffer 3 times and kinase buffer (50 mM HEPES (pH7.5), 2 mM DTT, 10 mM MnCl2, 10 mM MgCl2) for washing once. After adding kinase buffer [-substrate-ATP] […] After that, kinase buffer (50 mM HEPES (pH7.5), 2 mM DTT, 10 mM MgCl2, 10 mM MnCl2, 1 mM ATP, 500 ng GST-AKT, 10 nM calyculin A) of 10 μl was added and shaken at 30° C. for 45 minutes to progress a kinase reaction. […] Ser473 phosphorylation of GST-AKT, which is a substrate of mTORC2, was measured by performing immunoblot analysis using AKT antibody (#4691, Cell signaling) and phospho Ser473 AKT antibody (#4060, Cell signalig). In order to measure the mTORC2 activity inhibitory effect by the compound, both the kinase buffer [-substrate-ATP] and the kinase buffer included the compound.

[2] = tested on: Pten KO mice; assay: Macrocephaly alleviation (brain weight) in Pten KO mice; format: in vivo; design: average brain weight: unit not given here; details: for average brain weight: FIG. 5
Experimental: As Pten KO mice, Ptenf/f_cre/cre KO mice or Ptenf/f_cre/++ Het mice (KD) were obtained by mating Pten floxed/floxed mice and CAMKII-cre mice. DMSO or athyriol was intraperitoneally injected at 5 or 10 mg/kg for 2 weeks from the age of mice of 6 weeks, and a behavioral test was performed in 7 days after administration. Pten floxed/floxed mice were used as littermates of the same age as a normal control group.
When athyriol was administered into Pten KO mice, whether the weight of brain increased compared to a mouse without Pten knockout was reduced was confirmed. In other words, whether athyriol had efficacy of alleviating macrocephaly symptoms was confirmed through the following experiment.
Specifically, the body weight was measured after the aforementioned behavioral test of Experimental examples 1-2 to 1-6, and then animals were sacrificed. After removing the skull, the brain including forebrain, midbrain and hindbrain was extracted and the ratio of brain weight to body weight and the body weight were measured.

[3] = tested on: mTORC2 signaling (FHRE dependent gene expression); assay: FHRE-luciferase reporter analysis in A549; format: cell-based, human; details: A549 cells, treated for 24 hours; FIG. 7d
From the text: mTORC2 activates SGK3, and SGK3 phosphorylates Fox03a, allowing Fox03a to remain in the cytoplasm. When mTORC2 is inhibited, Fox03a is dephosphorylated and translocated to the nucleus, and in the nucleus, it binds to FHRE located in a gene promoter to induce gene expression. Therefore, the change in the intracellular location of Fox03a and FHRE dependent gene expression become indicators for evaluating mTORC2 activity. In order to evaluate the effect of norathyriol on the mTORC2 activity, norathyriol was treated to A549, and then expression of an FHRE-synthetic luciferase gene was investigated by luciferase reporter analysis.
Specifically, A549 cells of 2×10^5 were seeded in a 35 mm culture dish and cultured for 1 day, and then a 2.5 μg FHRE-Luc plasmid and a 0.1 μg renilla luciferase plasmid were introduced by a transfection method using Lipofectamine LTX reagent (Thermofisher). After 18 hours, norathyriol was treated for 24 hours. Luciferase assay was performed with Dual Luciferase Reporter Assay System (Promega) according to the manufacturer's instructions.

inhibition at 20 µM ([1]; 20 μM, FIG. 6b) | inhibition at 40 µM ([1]; 40 μM, FIG. 6b) | expression of the FHRE-synthetic luciferase gene [3] | reduction of GST-Akt Ser473 phosphorylation by mTORC2 ([1]; 5 μM) | reduction of GST-Akt Ser473 phosphorylation by mTORC2 ([1]; 40 μM) | IC50 ([1]; in vitro mTORC2 kinase assay) | Compound | brain weight corrected by body weight, increase compared to control group ([2]; 5 mg/kg) | average brain weight ([2]; 5 mg/kg for 14 days) | brain weight corrected by body weight, increase compared to control group ([2]; 10 mg/kg) | average brain weight ([2]; 10 mg/kg for 14 days) | alleviation of macrocephaly symptoms ([2]; 5 or 10 mg/kg for 14 days)
59% | 67% |  |  |  |  | COc1cc(O)c2c(=O)c3cc(O)c(O)cc3oc2c1 [athyriol, 1,6,7-Trihydroxy-3-methoxy-9H-xanthen-9-on] | about 1.3 times | 517 | ~1.26 times | 515 | ≥ 68%
 | 46% | increased by twice or more | ≥ 20% | 50% | 40 µM | O=c1c2cc(O)c(O)cc2oc2cc(O)cc(O)c12 [norathyriol, 1,3,6,7-tetrahydroxy-9H-xanthen-9-one] |  |  |  |  | 

Reference: patent US20240366555A1, “SELECTIVE MTORC2 INHIBITOR AND USES THEREOF” (ALIAD BIOPHARMA, priority 2021, published 2024)
